The IC50 is the concentration at which inhibition is half-maximal.

A short description of this series: Antioxidant activity assessed as DPPH radical scavenging activity incubated at room temperature for 20 mins by UV-visible spectrophotometry.

Consider `O=c1c(O)c(/C=C/c2ccccc2)oc2ccccc12`, for which the IC50 (DPPH radical (cell-free)) turned out to be 0.039 mM.

`O=C(/C=C\C=C/c1ccc2c(c1)OCO2)N1CCCCC1`: where the note is “DPPH radical (cell-free)”, the IC50 is 90.7 mM.

`O=c1c(O)c(-c2ccc3c(c2)OCO3)oc2ccccc12`: the IC50 (DPPH radical (cell-free)) was determined as 0.094 mM. With `O=c1cc(-c2ccc(Cl)cc2)oc2ccccc12`, the IC50 (DPPH radical (cell-free)) worked out at 0.725 mM.

As for `Cc1ccc(-c2cc(=O)c3ccccc3o2)cc1`, under “DPPH radical (cell-free)”, the IC50 was 6.34 mM. Turning to `O=C(/C=C/C=C/c1ccccc1)c1ccccc1`, the IC50 (DPPH radical (cell-free)) came out at 113 mM. Same read-out and setting: then `O=C(/C=C/c1ccc(Cl)cc1)c1ccccc1O`, with 6.1 mM; and `COc1ccc(/C=C/C(=O)c2ccccc2O)cc1`, with 190 mM.

On to `CN(C)c1ccc(-c2oc3ccccc3c(=O)c2O)cc1`, for which the IC50 (DPPH radical (cell-free)) worked out at 0.022 mM.

`O=C(/C=C/C=C/c1ccccc1)c1ccccc1O`: for the setting “DPPH radical (cell-free)”, the IC50 came out at 7.13 mM. For `O=c1c(O)c(-c2ccc(Cl)cc2)oc2ccccc12`, for the setting “DPPH radical (cell-free)”, the 50% inhibitory concentration (IC50) turned out to be 0.663 mM. With `CC(=O)c1ccccc1O`, under “DPPH radical (cell-free)”, the IC50 is 155 mM. On to `O=c1c(O)c(-c2ccco2)oc2ccccc12`, for which the IC50 (DPPH radical (cell-free)) came out at 0.034 mM. Still for that read-out and setting: the figure for `CC(C)(C)c1ccc(-c2cc(=O)c3ccc(O)cc3o2)cc1` is 44.3 mM. For `CC(C)(C)c1ccc(-c2oc3cc(O)cc(O)c3c(=O)c2O)cc1`, the IC50 (DPPH radical (cell-free)) came to 0.709 mM. As for `CC(C)(C)Oc1ccc(-c2oc3cc(O)cc(O)c3c(=O)c2O)cc1`, where the note is “DPPH radical (cell-free)”, the IC50 was determined as 0.452 mM. Consider `CN(C)c1ccc(-c2oc3cc(O)cc(O)c3c(=O)c2O)cc1`, for which the half-inhibitory concentration (IC50) (DPPH radical (cell-free)) worked out at 0.612 mM.

With `CC(C)c1ccc(-c2oc3ccccc3c(=O)c2O)cc1`, the IC50 (DPPH radical (cell-free)) amounted to 11 mM. As to `CC(C)c1ccc(-c2cc(=O)c3c(O)cc(O)cc3o2)cc1`, the IC50 (DPPH radical (cell-free)) was found to be 29.6 mM.

Consider `O=c1c(O)c(-c2ccc(Cl)cc2)oc2cc(O)cc(O)c12`, for which the IC50 (DPPH radical (cell-free)) turned out to be 27.8 mM. Same read-out and setting: the figure for `CC(C)(C)c1ccc(/C=C/C(=O)c2ccccc2O)cc1` is 17.1 mM. As for `COc1ccc(-c2oc3ccccc3c(=O)c2O)cc1`, the IC50 (DPPH radical (cell-free)) amounted to 0.114 mM. Consider `O=C(/C=C/c1ccco1)c1ccccc1O`, for which, under “DPPH radical (cell-free)”, the IC50 worked out at 4.27 mM. With `Cc1ccc(/C=C/C(=O)c2ccccc2O)cc1`, where the note is “DPPH radical (cell-free)”, the IC50 is 7.72 mM. On to `O=C(/C=C/c1ccccc1)c1ccccc1O` [2'-HYDROXYCHALCONE], for which the IC50 (DPPH radical (cell-free)) stood at 78 mM. As to `COc1ccc(-c2cc(=O)c3ccccc3o2)cc1` [4'-METHOXYFLAVONE], the IC50 (DPPH radical (cell-free)) was 682 mM.

Consider `O=C1O[C@H]([C@@H](O)CO)C(O)=C1O` [ASCORBIC ACID], for which the IC50 (DPPH radical (cell-free)) came to 0.033 mM. Take `COc1ccc(O)c(C(C)(C)C)c1.COc1ccc(O)cc1C(C)(C)C` [BUTYLATED HYDROXYANISOLE]: where the note is “DPPH radical (cell-free)”, the IC50 was 0.019 mM.

`O=C/C=C/c1ccccc1` [CINNAMALDEHYDE]: the IC50 (DPPH radical (cell-free)) was found to be 372 mM. As for `O=C(O)/C=C/c1ccccc1` [CINNAMIC ACID], the IC50 (DPPH radical (cell-free)) was determined as 1730 mM. As for `O=C(O)/C=C/c1ccc(O)cc1` [COUMARIC ACID], under “DPPH radical (cell-free)”, the IC50 worked out at 18.4 mM. On the same count and under the same terms, then `O=c1c(O)c(-c2ccccc2)oc2ccccc12` [FLAVONOL], with 0.387 mM. Regarding `O=Cc1ccco1` [FURFURAL], the IC50 (DPPH radical (cell-free)) worked out at 215 mM.

For `O=c1c(O)c(-c2ccccc2)oc2cc(O)cc(O)c12` [GALANGIN], the IC50 (DPPH radical (cell-free)) worked out at 0.191 mM. Regarding `O=C(O)c1cc(O)c(O)c(O)c1` [GALLIC ACID], the IC50 (DPPH radical (cell-free)) was 0.011 mM.

For `COc1c(-c2ccccc2)oc2c(ccc3occc32)c1=O` [KARANJIN], the IC50 (DPPH radical (cell-free)) amounted to 4.23 mM. For `O=C1C[C@@H](c2ccccc2)Oc2cc(O)cc(O)c21` [PINOCEMBRIN], the IC50 (DPPH radical (cell-free)) stood at 59.3 mM. For `COc1c(C(=O)/C=C(\O)c2ccccc2)ccc2occc12` [PONGAMOL], the IC50 (DPPH radical (cell-free)) stood at 11.6 mM. Take `O=Cc1ccccc1O` [SALICYLADEHYDE]: the IC50 (DPPH radical (cell-free)) came to 96.6 mM. With `O=C(O)c1ccccc1O` [SALICYLIC ACID], the IC50 was 278 mM. Regarding `Cc1c(C)c2c(c(C)c1O)CCC(C)(C(=O)O)O2` (stereo unspecified) [TROLOX], the IC50 (DPPH radical (cell-free)) was determined as 0.012 mM.

Values taken from ChEMBL document CHEMBL3351737, “Design, synthesis and exploring the quantitative structure-activity relationship of some antioxidant flavonoid analogues” (Bioorg Med Chem Lett, 2014).
